Patent publication US10160747B2, “Compounds and methods for kinase modulation, and indications therefor” (Plexxikon Inc., priority 2016, dated 2018)
pIC50: −log10 of the molar value.

Assays:
FLT3-D835Y = target: T1, FLT3-D835Y (Homo sapiens, UniProt P36888, D835Y); test: FLT3-D835Y recombinant enzyme kinase assay (AlphaScreen); format: biochemical; settings: 8 pt, GMean
T1 construct: purchased Invitrogen PV3967
T1 sequence (P36888 27-993 D835Y): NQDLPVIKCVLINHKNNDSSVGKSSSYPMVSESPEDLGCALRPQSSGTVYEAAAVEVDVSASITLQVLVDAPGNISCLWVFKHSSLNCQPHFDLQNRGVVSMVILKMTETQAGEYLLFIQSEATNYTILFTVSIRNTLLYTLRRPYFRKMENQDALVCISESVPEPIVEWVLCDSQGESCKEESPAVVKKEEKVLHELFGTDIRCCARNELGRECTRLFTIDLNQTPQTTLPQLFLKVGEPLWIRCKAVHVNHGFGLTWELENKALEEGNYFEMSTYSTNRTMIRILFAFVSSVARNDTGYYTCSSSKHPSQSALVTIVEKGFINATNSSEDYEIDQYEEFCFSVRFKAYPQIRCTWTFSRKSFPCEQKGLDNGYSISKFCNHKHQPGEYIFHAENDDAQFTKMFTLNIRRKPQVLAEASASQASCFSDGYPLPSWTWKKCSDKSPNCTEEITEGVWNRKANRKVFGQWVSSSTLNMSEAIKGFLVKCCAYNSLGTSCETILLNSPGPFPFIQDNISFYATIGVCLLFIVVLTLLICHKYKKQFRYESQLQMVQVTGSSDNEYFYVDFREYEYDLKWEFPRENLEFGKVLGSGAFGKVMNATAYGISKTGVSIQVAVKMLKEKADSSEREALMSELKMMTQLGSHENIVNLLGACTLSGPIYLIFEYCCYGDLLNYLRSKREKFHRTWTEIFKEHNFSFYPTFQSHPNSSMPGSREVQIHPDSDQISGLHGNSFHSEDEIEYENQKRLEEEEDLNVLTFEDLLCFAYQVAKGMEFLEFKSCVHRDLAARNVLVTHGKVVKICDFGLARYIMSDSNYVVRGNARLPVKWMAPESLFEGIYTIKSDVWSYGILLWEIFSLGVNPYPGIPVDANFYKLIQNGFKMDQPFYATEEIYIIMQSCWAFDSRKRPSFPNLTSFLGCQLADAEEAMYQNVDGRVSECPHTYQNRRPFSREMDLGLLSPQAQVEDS
In short: (§1)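 Enzyme plus biotinylated poly(Glu4-Tyr) substrate (30 nM) mixed with compound, then ATP added. Donor beads went in for 20 min at room temperature, then PY20 acceptor beads for 60 min. AlphaScreen read; ATP was 10 μM for FLT3-ITD/D835Y and 100 μM for c-KIT.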

FLT3-ITD = target: T2, FLT3-ITD (Homo sapiens, UniProt P36888); test: FLT3-ITD recombinant enzyme kinase assay (AlphaScreen); format: biochemical; settings: 8 pt; read-out: FLT3_ITD 8 pt: IC50
T2 sequence (P36888 1-993): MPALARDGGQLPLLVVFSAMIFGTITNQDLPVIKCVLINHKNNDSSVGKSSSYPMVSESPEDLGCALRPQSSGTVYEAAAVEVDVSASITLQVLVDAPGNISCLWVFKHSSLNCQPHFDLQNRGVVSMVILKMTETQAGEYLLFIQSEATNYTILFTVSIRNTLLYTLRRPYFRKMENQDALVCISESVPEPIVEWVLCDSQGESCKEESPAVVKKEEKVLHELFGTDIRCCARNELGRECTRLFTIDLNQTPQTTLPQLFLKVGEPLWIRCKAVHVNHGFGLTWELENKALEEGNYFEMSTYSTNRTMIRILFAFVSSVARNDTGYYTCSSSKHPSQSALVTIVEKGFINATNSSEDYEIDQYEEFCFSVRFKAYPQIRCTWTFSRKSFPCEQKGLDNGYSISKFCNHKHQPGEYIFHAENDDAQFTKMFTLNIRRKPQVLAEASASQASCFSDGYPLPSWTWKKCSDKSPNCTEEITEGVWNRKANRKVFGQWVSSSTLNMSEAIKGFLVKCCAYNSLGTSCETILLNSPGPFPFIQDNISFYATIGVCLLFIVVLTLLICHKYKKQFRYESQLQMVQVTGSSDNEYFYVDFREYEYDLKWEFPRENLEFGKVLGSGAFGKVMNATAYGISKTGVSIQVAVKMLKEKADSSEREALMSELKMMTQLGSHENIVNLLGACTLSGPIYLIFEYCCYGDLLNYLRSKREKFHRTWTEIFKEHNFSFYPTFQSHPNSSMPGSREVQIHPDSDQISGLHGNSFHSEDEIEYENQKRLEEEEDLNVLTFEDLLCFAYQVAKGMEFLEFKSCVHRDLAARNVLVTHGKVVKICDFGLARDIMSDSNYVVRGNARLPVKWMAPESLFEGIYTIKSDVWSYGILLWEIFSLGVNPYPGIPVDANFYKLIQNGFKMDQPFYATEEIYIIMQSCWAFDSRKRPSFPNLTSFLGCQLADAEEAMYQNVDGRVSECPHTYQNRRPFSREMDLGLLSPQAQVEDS
In short: as §1

pIC50 (FLT3-D835Y) | pIC50 (FLT3-ITD) | Compound
5.00 to 10.00 | 5.00 to 10.00 | Cc1nn(C)cc1Nc1ncc(-c2ccc(CC(=O)Nc3cnc(C)c(C(F)(F)F)c3)c(F)c2)cn1 [Compound P-0077, 2-[4-[2-[(1,3-dimethylpyrazol-4-yl)amino]pyrimidin-5-yl]-2-fluoro-phenyl]-N-[6-methyl-5-(trifluoromethyl)-3-pyridyl]acetamide]
5.00 to 10.00 | 5.00 to 10.00 | CCC(=O)c1c[nH]c2ncc(-c3ccc(CC(=O)Nc4cnc(C)c(C(F)(F)F)c4)c(F)c3)cc12 [Compound P-0070, 2-[2-fluoro-4-(3-propanoyl-1H-pyrrolo[2,3-b]pyridin-5-yl)phenyl]-N-[6-methyl-5-(trifluoromethyl)-3-pyridyl]acetamide]
5.00 to 10.00 | 5.00 to 10.00 | Cc1ncc(NC(=O)Cc2ccc(-c3cnc4[nH]cc(Cl)c4n3)cc2)cc1C(F)(F)F [Compound P-0079, 2-(4-(7-chloro-5H-pyrrolo[2,3-b]pyrazin-2-yl)phenyl)-N-(6-methyl-5-(trifluoromethyl)pyridin-3-yl)acetamide]
5.00 to 10.00 | 5.00 to 10.00 | COc1cncc(NC(=O)Cc2ccc(-c3cnc(Nc4cnn(C)c4)nc3)cc2F)c1 [Compound P-0086, 2-[2-fluoro-4-[2-[(1-methylpyrazol-4-yl)amino]pyrimidin-5-yl]phenyl]-N-(5-methoxy-3-pyridyl)acetamide]
5.00 to 10.00 | 5.00 to 10.00 | COc1ncc(NC(=O)Cc2ccc(-c3cnc(Nc4cnn5ccccc45)nc3)cc2F)cc1C(F)(F)F [Compound P-0037, 2-[2-fluoro-4-[2-(pyrazolo[1,5-a]pyridin-3-ylamino)pyrimidin-5-yl]phenyl]-N-[6-methoxy-5-(trifluoromethyl)-3-pyridyl]acetamide]
5.00 to 10.00 | 5.00 to 10.00 | Cc1cc(CC(=O)Nc2cccc(C(F)(F)F)c2)ccc1-c1cnc2[nH]c(-c3ccccc3)cc2c1 [Compound P-0002, 2-[3-methyl-4-(2-phenyl-1H-pyrrolo[2,3-b]pyridin-5-yl)phenyl]-N-[3-(trifluoromethyl)phenyl]acetamide]
5.00 to 10.00 | 5.00 to 10.00 | COc1ncc(NC(=O)Cc2ccc(-c3cnc4[nH]cc(F)c4c3)cc2F)cc1C(F)(F)F [Compound P-0034, 2-[2-fluoro-4-(3-fluoro-1H-pyrrolo[2,3-b]pyridin-5-yl)phenyl]-N-[6-methoxy-5-(trifluoromethyl)-3-pyridyl]acetamide]
5.00 to 10.00 | 5.00 to 10.00 | CCC(=O)c1c[nH]c2ncc(-c3ccc(CC(=O)Nc4cncc(C(F)(F)F)c4)c(F)c3)cc12 [Compound P-0068, 2-[2-fluoro-4-(3-propanoyl-1H-pyrrolo[2,3-b]pyridin-5-yl)phenyl]-N-[5-(trifluoromethyl)-3-pyridyl]acetamide]
5.00 to 10.00 | 5.00 to 10.00 | Cc1ncc(NC(=O)Cc2ccc(-c3cnc4[nH]cc(Cl)c4n3)cc2F)cc1C(F)(F)F [Compound P-0059, 2-[4-(7-chloro-5H-pyrrolo[2,3-b]pyrazin-2-yl)-2-fluoro-phenyl]-N-[6-methyl-5-(trifluoromethyl)-3-pyridyl]acetamide]

Continued, compound first:

Compound | pIC50 (FLT3-D835Y) | pIC50 (FLT3-ITD)
O=C(Cc1ccc(-c2cnc3[nH]cc(F)c3c2)cc1F)Nc1cc(Cl)c(C2CC2)cn1 [Compound P-0044, N-(4-chloro-5-cyclopropyl-2-pyridyl)-2-[2-fluoro-4-(3-fluoro-1H-pyrrolo[2,3-b]pyridin-5-yl)phenyl]acetamide] | 5.00 to 10.00 | 5.00 to 10.00
O=C(Cc1ccc(-c2cnc(Nc3cnn4ccccc34)nc2)cc1F)Nc1ccnc(C(F)(F)F)c1 [Compound P-0033, 2-[2-fluoro-4-[2-(pyrazolo[1,5-a]pyridin-3-ylamino)pyrimidin-5-yl]phenyl]-N-[2-(trifluoromethyl)-4-pyridyl]acetamide] | 5.00 to 10.00 | 5.00 to 10.00
Cn1cc(Nc2ncc(-c3ccc(CC(=O)NCc4ccc(C(F)(F)F)nc4)c(F)c3)cn2)cn1 [Compound P-0087, 2-[2-fluoro-4-[2-[(1-methylpyrazol-4-yl)amino]pyrimidin-5-yl]phenyl]-N-[[6-(trifluoromethyl)-3-pyridyl]methyl]acetamide] | 5.00 to 10.00 | 5.00 to 10.00
COc1ncc(NC(=O)Cc2ccc(-c3cnc4[nH]cc(C(C)=O)c4c3)cc2F)cc1C(F)(F)F [Compound P-0035, 2-[4-(3-acetyl-1H-pyrrolo[2,3-b]pyridin-5-yl)-2-fluoro-phenyl]-N-[6-methoxy-5-(trifluoromethyl)-3-pyridyl]acetamide] | 5.00 to 10.00 | 5.00 to 10.00
O=C(Cc1ccc(-c2cnc(Nc3cnn(C(F)F)c3)nc2)c(F)c1)Nc1cc(C(F)(F)F)ccn1 [Compound P-0024, 2-[4-[2-[[1-(difluoromethyl)pyrazol-4-yl]amino]pyrimidin-5-yl]-3-fluoro-phenyl]-N-[4-(trifluoromethyl)-2-pyridyl]acetamide] | 5.00 to 10.00 | 5.00 to 10.00
O=C(Cc1ccc(-c2cnc3[nH]nc(C4CC4)c3c2)cc1)Nc1cncc(C(F)(F)F)c1 [Compound P-0073, 2-[4-(3-cyclopropyl-1H-pyrazolo[3,4-b]pyridin-5-yl)phenyl]-N-[5-(trifluoromethyl)-3-pyridyl]acetamide] | 5.00 to 10.00 | 5.00 to 10.00
Cn1cnc(Nc2ncc(-c3cc(F)c(CC(=O)Nc4cncc(C(F)(F)F)c4)cc3F)cn2)c1 [Compound P-0078, 2-(2,5-difluoro-4-(2-((1-methyl-1H-imidazol-4-yl)amino)pyrimidin-5-yl)phenyl)-N-(5-(trifluoromethyl)pyridin-3-yl)acetamide] | 5.00 to 10.00 | 5.00 to 10.00
COc1ncc(NC(=O)Cc2ccc(-c3cnc4[nH]cc(Cl)c4n3)cc2F)cc1C(F)(F)F [Compound P-0047, 2-[4-(7-chloro-5H-pyrrolo[2,3-b]pyrazin-2-yl)-2-fluoro-phenyl]-N-[6-methoxy-5-(trifluoromethyl)-3-pyridyl]acetamide] | 5.00 to 10.00 | 5.00 to 10.00
Cn1cc(Nc2ncc(-c3ccc(CC(=O)Nc4cncc(C(C)(F)F)c4)c(F)c3)cn2)cn1 [Compound P-0090, N-[5-(1,1-difluoroethyl)-3-pyridyl]-2-[2-fluoro-4-[2-[(1-methylpyrazol-4-yl)amino]pyrimidin-5-yl]phenyl]acetamide] | 5.00 to 10.00 | 5.00 to 10.00
Cn1cc(Nc2ncc(-c3ccc(CC(=O)Nc4cc(C(F)(F)F)ccn4)c(F)c3)cn2)cn1 [Compound P-0082, 2-[2-fluoro-4-[2-[(1-methylpyrazol-4-yl)amino]pyrimidin-5-yl]phenyl]-N-[4-(trifluoromethyl)-2-pyridyl]acetamide] | 5.00 to 10.00 | 5.00 to 10.00
O=C(Cc1ccc(-c2cnc3[nH]nc(C4CC4)c3c2)cc1F)Nc1cncc(C(F)(F)F)c1 [Compound P-0072, 2-[4-(3-cyclopropyl-1H-pyrazolo[3,4-b]pyridin-5-yl)-2-fluoro-phenyl]-N-[5-(trifluoromethyl)-3-pyridyl]acetamide] | 5.00 to 10.00 | 5.00 to 10.00
